Measured values reported in US20180055844A1 (Celgene Corporation, priority 2011, published 2018).
Several values for one entry are separate records, joined by “and”; a condition that tells them apart may be missing. Equal values may be shown once. Entries after “also recorded” stand apart in the source; their conditions may differ. Read-outs that look alike come from different tables or passages of the source.

Tests used:
[1] = Proliferation assays with Rituxan (Chou-Talalay method); format: cell-based
HUVEC = HUVEC migration; format: cell-based; settings: Homo sapiens
[2] = tested on: MM cell lines U266, 100-1 and 1K-2; assay: Proliferation of CRBN-sensitive MM cell lines; format: cell-based
CRBN = molecular target: T1, CRBN (Homo sapiens, UniProt Q96SW2); assay: CRBN interaction; format: binding; settings: dose-dependent
T1 construct: endogenous in cells; HepG2 hepatocellular carcinoma cells

Colo-205 = assay: Solid tumor cell colony formation; format: cell-based; settings: Homo sapiens
Oral pharmacokinetics [3] = format: in vivo, SD rat
U87 GB xenograft = U87 GB xenograft model; format: in vivo; settings: 3 and 30 mg/kg qd
SF268 = assay: Solid tumor cell colony formation; format: cell-based; settings: Homo sapiens, SF-268
[4] = Pharmacokinetics in monkeys on Day 1 and Day 27; settings: monkey, in vivo; for AUC(0-t): read-out: AUC0-24
H929 myeloma cells = assay: Cell cycle in siRNA-transfected H929 cells; format: cell-based; settings: 72 h treatment
Description: (§1) Cells were treated with DMSO or an amount of a compound provided herein for 48 hours. Propidium iodide staining for cell cycle was performed using CycleTEST PLUS (Becton Dickinson) according to manufacturer's protocol. Following staining, cells were analyzed by a FACSCalibur flow cytometer using ModFit LT software (Becton Dickinson).
The effect of cereblon in H929 myeloma cells was also evaluated. H929 cells were transfected with mock, negative control siRNA and CRBN-siRNA-7 for 24, 48, 72 and 96 hours.

OVCAR-3 = assay: Solid tumor cell colony formation; format: cell-based; settings: Homo sapiens
NCI-H929 MM xenograft = NCI-H929 MM xenograft model; format: in vivo; settings: day 19
WSU-DLCL2 xenograft = WSU-DLCL2 xenograft model; format: in vivo; settings: combination with Rituxan (2 mg/kg iv qw)
DoHH2 xenograft = DoHH2 xenograft model; format: in vivo; settings: for tumor growth inhibition: day 12
Oral pharmacokinetics [5] = format: in vivo; settings: SCID mouse
WSU-DLCL2 [6] = assay: Cell cycle analysis; format: cell-based
Description: as §1

DoHH2 = assay: Cell cycle analysis; format: cell-based
Description: as §1

HepG2 = assay: Invasion of solid tumor cells; format: cell-based; settings: Homo sapiens; HepG2 (VEGF), hepatocellular
U2932 = assay: 5 day 3H thymidine incorporation assay; format: cell-based; settings: Homo sapiens; U2932, ABC subtype
Excerpt: (§2) Results of 3 independent experiments are shown (mean±SD) in FIG. 2. […] ABC-subtype cells appear more sensitive to the antiproliferative effect than other subtype cells including GCB-DLBCL and PMBL cells.

SUDHL4 = assay: 5 day 3H thymidine incorporation assay; format: cell-based; settings: Homo sapiens, SU-DHL-4; SUDHL4, GCB subtype
Excerpt: as §2

OCI-Ly10 = assay: 5 day 3H thymidine incorporation assay; format: cell-based; settings: Homo sapiens; OCI-Ly10, ABC subtype
Excerpt: as §2

OCI-Ly19 = assay: 5 day 3H thymidine incorporation assay; format: cell-based; settings: Homo sapiens; OCI-Ly19, GCB subtype
Excerpt: as §2

TMD8 = assay: 5 day 3H thymidine incorporation assay; format: cell-based; settings: Homo sapiens; TMD8, ABC subtype
Excerpt: as §2

Karpas-1106P = assay: 5 day 3H thymidine incorporation assay; format: cell-based; settings: Homo sapiens, PMBL
Excerpt: as §2

WSU-DLCL2 [7] = assay: 5 day 3H thymidine incorporation assay; format: cell-based; settings: Homo sapiens, WSUDLCL2; WSU-DLCL2, GCB subtype
Excerpt: as §2

RIVA = assay: 5 day 3H thymidine incorporation assay; format: cell-based; settings: ABC subtype
Excerpt: as §2

[8] = plasma, 30 mg/kg, SD rat, 30 mpk po
[9] = female, 0.15 mg/kg, Day 1, 0.15 mg/kg, female
[10] = female, 0.15 mg/kg, Day 27, 0.15 mg/kg, female
[11] = female, 1.5 mg/kg, Day 1, 1.5 mg/kg, female
[12] = female, 1.5 mg/kg, Day 27, 1.5 mg/kg, female
[13] = female, 15 mg/kg, Day 1, 15 mg/kg, female
[14] = female, 15 mg/kg, Day 27, 15 mg/kg, female
[15] = male, 0.15 mg/kg, Day 1, 0.15 mg/kg, male
[16] = male, 0.15 mg/kg, Day 27, 0.15 mg/kg, male
[17] = male, 1.5 mg/kg, Day 1, 1.5 mg/kg, male
[18] = male, 1.5 mg/kg, Day 27, 1.5 mg/kg, male
[19] = male, 15 mg/kg, Day 1, 15 mg/kg, male
[20] = male, 15 mg/kg, Day 27, 15 mg/kg, male

T1 sequence (Q96SW2 whole entry): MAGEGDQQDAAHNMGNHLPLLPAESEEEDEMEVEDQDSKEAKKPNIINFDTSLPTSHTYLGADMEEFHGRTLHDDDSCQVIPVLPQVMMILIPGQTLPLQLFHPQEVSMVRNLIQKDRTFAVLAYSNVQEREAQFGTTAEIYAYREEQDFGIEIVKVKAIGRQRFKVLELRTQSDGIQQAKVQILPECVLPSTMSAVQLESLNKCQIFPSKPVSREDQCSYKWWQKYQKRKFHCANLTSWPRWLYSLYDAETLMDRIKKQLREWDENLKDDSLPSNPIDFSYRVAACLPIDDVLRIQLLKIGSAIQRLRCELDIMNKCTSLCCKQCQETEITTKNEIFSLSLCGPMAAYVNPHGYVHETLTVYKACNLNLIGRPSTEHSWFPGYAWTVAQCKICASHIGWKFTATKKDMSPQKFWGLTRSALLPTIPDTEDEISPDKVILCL

Cc1nc2cccc(N)c2c(=O)n1C1CCC(=O)NC1=O (stereo not drawn) [compound of Formula I, 3-(5-amino-2-methyl-4-oxo-4H-quinazolin-3-yl)-piperidine-2,6-dione]
interaction with Rituxan in proliferation assays [1]: synergistically | inhibition at 1 µM (HUVEC; read-out: inhibition of VEGF-induced migration): 38% | inhibition at 1 µM (HUVEC; read-out: inhibition of bFGF-induced migration): 28% | proliferation of CRBN-sensitive MM cell lines U266, 100-1 and 1K-2 [2]: inhibit the proliferation | interaction with HepG2 HCC CRBN (CRBN): interacts | interaction with endogenous myeloma CRBN (CRBN): interact | inhibition at 10 µM (Colo-205): 17% | F (Oral pharmacokinetics [3]; SD rat, 30 mpk po): 53% | AUC (Oral pharmacokinetics [3]; [8]): 25000 ng·h/mL and 87 µM·h | Cmax (Oral pharmacokinetics [3]; [8]): 4800 ng/mL and 17 µM | half-life (Oral pharmacokinetics [3]; plasma, oral, 30 mpk, SD rat): 2.7 h | clearance (Oral pharmacokinetics [3]; plasma, SD rat, read-out: CLp): 11 mL/min/kg | Exposures (AUC(0-t)) versus dose (Oral pharmacokinetics [3]; up to 30 mg/kg, CD-IDS rat): increased in a dose proportional manner | U87 tumor growth (U87 GB xenograft): significantly inhibited; also recorded: inhibits | inhibition at 10 µM (SF268): 0.6% | Cmax [4, 9]: 63 ng/mL | Tmax [4, 9]: 2 h | AUC(0-t) [4, 9]: 450 ng·h/mL | Cmax [4, 10]: 57 ng/mL | Tmax [4, 10]: 2 to 4 h | AUC(0-t) [4, 10]: 450 ng·h/mL | Cmax [4, 11]: 680 ng/mL | Tmax [4, 11]: 2 h | AUC(0-t) [4, 11]: 4100 ng·h/mL | Cmax [4, 12]: 590 ng/mL | Tmax [4, 12]: 0.5 to 2 h | AUC(0-t) [4, 12]: 4200 ng·h/mL | Cmax [4, 13]: 4200 ng/mL | Tmax [4, 13]: 2 to 4 h | AUC(0-t) [4, 13]: 38000 ng·h/mL | Cmax [4, 14]: 7000 ng/mL | Tmax [4, 14]: 4 h | AUC(0-t) [4, 14]: 75000 ng·h/mL | Cmax [4, 15]: 36 ng/mL | Tmax [4, 15]: 2 to 4 h | AUC(0-t) [4, 15]: 430 ng·h/mL | Cmax [4, 16]: 53 ng/mL | Tmax [4, 16]: 4 h | AUC(0-t) [4, 16]: 570 ng·h/mL | Cmax [4, 17]: 510 ng/mL | Tmax [4, 17]: 2 to 4 h | AUC(0-t) [4, 17]: 4600 ng·h/mL | Cmax [4, 18]: 560 ng/mL | Tmax [4, 18]: 2 h | AUC(0-t) [4, 18]: 5700 ng·h/mL | Cmax [4, 19]: 4100 ng/mL | Tmax [4, 19]: 4 h | AUC(0-t) [4, 19]: 51000 ng·h/mL | Cmax [4, 20]: 5800 ng/mL | Tmax [4, 20]: 2 to 4 h | AUC(0-t) [4, 20]: 72000 ng·h/mL | drug-induced delay in cell cycle progression (decrease of the number of cells in S phase) (H929 myeloma cells; H929, control (before CRBN knockdown)): 65% | drug-induced delay in cell cycle progression (decrease of the number of cells in S phase) (H929 myeloma cells; H929, knockdown of CRBN): 22% | inhibition at 10 µM (OVCAR-3): 18% | tumor growth inhibition (NCI-H929 MM xenograft; 0.3 mg/kg): 59% | tumor growth inhibition (NCI-H929 MM xenograft; 3 mg/kg): 73% | tumor growth inhibition (NCI-H929 MM xenograft; 30 mg/kg): 93% | complete regressions (tumor volume<25 mm^3) (WSU-DLCL2 xenograft; 3 mg): 60% | complete regressions (tumor volume<25 mm^3) (WSU-DLCL2 xenograft; 30 mg): 90% | tumor growth inhibition (DoHH2 xenograft; 3 mpk in combination with Rituxan (1 mg/kg)): 45% | tumor growth inhibition (DoHH2 xenograft; 30 mpk in combination with Rituxan (1 mg/kg)): 55% | delay of time to tumor endpoint (DoHH2 xenograft; combination with Rituxan, 30 mg/kg dose): 63% | blood vessels counts in tumor (DoHH2 xenograft; in vivo): significantly inhibited | tumor growth (DoHH2 xenograft; single agent): inhibited tumor growth | AUC (Oral pharmacokinetics [5]; in vivo, 3 mg/kg, 3 mpk po): 7100 ng·h/mL and 25 µM·h | Cmax (Oral pharmacokinetics [5]; in vivo, 3 mg/kg, 3 mpk po): 2900 ng/mL and 10 µM | Exposures (AUC(0-t)) versus dose (Oral pharmacokinetics [5]; up to 30 mg/kg): increased in a dose proportional manner | G1 arrest (WSU-DLCL2 [6]): induced G1 arrest | G1 arrest (DoHH2): induced G1 arrest | IC50 (HepG2): < 1 nM | IC50 (U2932): 110 to 120 nM | IC50 (SUDHL4): > 10000 nM | IC50 (OCI-Ly10): 8.5 nM | IC50 (OCI-Ly19): > 10000 nM | IC50 (TMD8): 440 nM | IC50 (Karpas-1106P): 580 to 710 nM | IC50 (WSU-DLCL2 [7]): 790 to 2100 nM | IC50 (RIVA): 4300 nM
